Measurements from ChEMBL document CHEMBL1155276, “Anti-listerial activity and structure-activity relationships of the six major tyrocidines, cyclic decapeptides from Bacillus aneurinolyticus” (Bioorg Med Chem, 2009).
Non-standard residues stand in square brackets, D forms with d. Residues, ends and D or L forms follow the SMILES beside them. Orn = NCCC[C@H](N)C(=O)O

Tests used:
Listeria monocytogenes [1] = assay: Antibacterial activity against leucocin A-sensitive Listeria monocytogenes B73 after 16 hrs by broth microdilution assay; format: functional, organism-based; conditions: B73, 16 h
Listeria monocytogenes [2] = assay: Antibacterial activity against leucocin A-sensitive Listeria monocytogenes B73 after 16 hrs by micro-gel well diffusion assay; format: functional
Listeria monocytogenes [3] = assay: Antibacterial activity against leucocin A-resistant Listeria monocytogenes B73-MR1 after 16 hrs by broth microdilution assay; format: functional, organism-based; conditions: B73-MR1, 16 h
Listeria monocytogenes [4] = assay: Antibacterial activity against leucocin A-resistant Listeria monocytogenes B73-MR1 after 16 hrs by micro-gel well diffusion assay; format: functional
Escherichia coli = assay: Antibacterial activity against Escherichia coli HB101 at 200 ug/mL after 16 hrs by broth microdilution assay; format: functional
Listeria monocytogenes [5] = assay: Antilysterial activity against leucocin A-sensitive Listeria monocytogenes B73 assessed as bacterial lysis per min at 10 uM by broth microdilution assay; format: functional
Listeria monocytogenes [6] = assay: Antilysterial activity against leucocin A-sensitive Listeria monocytogenes B73 assessed as bacterial lysis at 10 uM after 60 mins by broth microdilution assay; format: functional
Listeria monocytogenes [7] = assay: Antilysterial activity against leucocin A-sensitive Listeria monocytogenes B73 assessed as bacterial lysis half life at 10 uM by broth microdilution assay; format: functional, organism-based
Micrococcus luteus [8] = assay: Antibacterial activity against Micrococcus luteus NCTC 8340 after 16 hrs by broth microdilution assay; format: functional, organism-based; conditions: NCTC 8340, 16 h
Micrococcus luteus [9] = assay: Antibacterial activity against Micrococcus luteus NCTC 8340 after 16 hrs by micro-gel well diffusion assay; format: functional

Row | SMILES | IC50 (Listeria monocytogenes [1]) | ICmax (Listeria monocytogenes [2]) | IC50 (Listeria monocytogenes [3]) | ICmax (Listeria monocytogenes [4]) | Activity (Escherichia coli) | Activity (Listeria monocytogenes [5]) | Activity (Listeria monocytogenes [6]) | T1/2 (Listeria monocytogenes [7]) | IC50 (Micrococcus luteus [8]) | ICmax (Micrococcus luteus [9])
1 | CC(C)C[C@@H]1NC(=O)[C@H](CCCN)NC(=O)[C@H](C(C)C)NC(=O)[C@H](Cc2ccc(O)cc2)NC(=O)[C@H](CCC(N)=O)NC(=O)[C@H](CC(N)=O)NC(=O)[C@@H](Cc2c[nH]c3ccccc23)NC(=O)[C@H](Cc2c[nH]c3ccccc23)NC(=O)[C@@H]2CCCN2C(=O)[C@@H](Cc2ccccc2)NC1=O [TYROCIDINE C] | 9.5 µM | 13 µM | 7 µM | 11 µM | <50% | 1.48% | 66% | 31.2 min | 6.4 µM | 9 µM
2 | CC(C)C[C@@H]1NC(=O)[C@H](CCCN)NC(=O)[C@H](C(C)C)NC(=O)[C@H](Cc2ccc(O)cc2)NC(=O)[C@H](CCC(N)=O)NC(=O)[C@H](CC(N)=O)NC(=O)[C@@H](Cc2ccccc2)NC(=O)[C@H](Cc2c[nH]c3ccccc23)NC(=O)[C@@H]2CCCN2C(=O)[C@@H](Cc2ccccc2)NC1=O [TYROCIDINE B] | 10 µM | 15 µM | 7.7 µM | 12 µM | <50% | 1.53% | 64% | 28.8 min | 6.5 µM | 9.9 µM
3 | CC(C)C[C@@H]1NC(=O)[C@H](CCCN)NC(=O)[C@H](C(C)C)NC(=O)[C@@H]2CCCN2C(=O)[C@@H](Cc2ccccc2)NC(=O)[C@H](CC(C)C)NC(=O)[C@H](CCCN)NC(=O)[C@H](C(C)C)NC(=O)[C@@H]2CCCN2C(=O)[C@@H](Cc2ccccc2)NC1=O [GRAMICIDIN S] (cyclo(L[dF]PV[Orn]L[dF]PV[Orn])) | 6.6 µM | 11 µM | 3.9 µM | 6.2 µM |  | 1.61% | 70% | 38.5 min | 6.7 µM | 31 µM
4 | CC(C)C[C@@H]1NC(=O)[C@H](CCCN)NC(=O)[C@H](C(C)C)NC(=O)[C@H](Cc2ccc(O)cc2)NC(=O)[C@H](CCC(N)=O)NC(=O)[C@H](CC(N)=O)NC(=O)[C@@H](Cc2ccccc2)NC(=O)[C@H](Cc2ccccc2)NC(=O)[C@@H]2CCCN2C(=O)[C@@H](Cc2ccccc2)NC1=O [TYROCIDINE A] (cyclo(F[dF]NQYV[Orn]L[dF]P)) | 13 µM | 25 µM | 9.9 µM | 16 µM | <50% | 1.62% | 59% | 32.3 min | 22 µM | 70 µM
5 | CC(C)C[C@@H]1NC(=O)[C@H](CCCCN)NC(=O)[C@H](C(C)C)NC(=O)[C@H](Cc2ccc(O)cc2)NC(=O)[C@H](CCC(N)=O)NC(=O)[C@H](CC(N)=O)NC(=O)[C@@H](Cc2ccccc2)NC(=O)[C@H](Cc2ccccc2)NC(=O)[C@@H]2CCCN2C(=O)[C@@H](Cc2ccccc2)NC1=O [TYROCIDINE A1] | 18 µM | 38 µM | 10 µM | 16 µM | <50% | 1.47% | 62% | 32.2 min | 26 µM | 72 µM
6 | CC(C)C[C@@H]1NC(=O)[C@H](CCCCN)NC(=O)[C@H](C(C)C)NC(=O)[C@H](Cc2ccc(O)cc2)NC(=O)[C@H](CCC(N)=O)NC(=O)[C@H](CC(N)=O)NC(=O)[C@@H](Cc2ccccc2)NC(=O)[C@H](Cc2c[nH]c3ccccc23)NC(=O)[C@@H]2CCCN2C(=O)[C@@H](Cc2ccccc2)NC1=O [TYROCIDINE B1] | 8.1 µM | 15 µM | 6.7 µM | 10 µM | <50% | 1.68% | 63% | 29.6 min | 4.2 µM | 8.9 µM
7 | CC(C)C[C@@H]1NC(=O)[C@H](CCCN)NC(=O)[C@H](C(C)C)NC(=O)[C@H](Cc2ccc(O)cc2)N[C@@H](CCC(=O)O)C(=O)N[C@@H](CC(N)=O)C(=O)[C@@H](Cc2ccccc2)NC(=O)[C@H](Cc2ccccc2)NC(=O)[C@@H]2CCCN2C(=O)[C@@H](Cc2ccccc2)NC1=O [TYROTHRICIN] | 12 µg/mL | 21 µg/mL | 9.7 µg/mL | 29 µg/mL |  |  |  |  | 3.5 µg/mL | 6.3 µg/mL
8 | CC(C)C[C@@H]1NC(=O)[C@H](CCCCN)NC(=O)[C@H](C(C)C)NC(=O)[C@H](Cc2ccc(O)cc2)NC(=O)[C@H](CCC(N)=O)NC(=O)[C@H](CC(N)=O)NC(=O)[C@@H](Cc2c[nH]c3ccccc23)NC(=O)[C@H](Cc2c[nH]c3ccccc23)NC(=O)[C@@H]2CCCN2C(=O)[C@@H](Cc2ccccc2)NC1=O [TYROCIDINE C1] | 9.3 µM | 22 µM | 7.5 µM | 16 µM | <50% | 1.55% | 60% | 27.5 min | 7.3 µM | 15 µM
